Laboratory results from patent US12486234B2, “PAPD5 inhibitors and methods of use thereof” (Children's Medical Center Corporation, priority 2019, dated 2025).

Key:
PAPD5 [1] = target: T1, PAPD5 (Homo sapiens, UniProt Q8NDF8); assay: RNA oligo-adenylation (oligo-extension) inhibition assay with recombinant PAPD5; assay type: biochemical; design: key: minimal activity (0); range from minimal activity (0) to that of compound 1 (+++); range from minimal activity (0) to that of compound 1 (+++); that of compound 1 (+++); settings: qualitative measure of RNA oligo-extension inhibition, relative to compound 1
T1 construct: made in house
Description: An in vitro RNA polyadenylation assay using recombinant PAPD5, ATP and an oligonucleotide substrate utilized the following phenomenon: ATP utilization by PAPD5 reads out as a decreased luminescence signal produced by luciferase (KinaseGlo, Promega, Madison, WI).
(§1) Qualitative measure of RNA oligo-extension inhibition for the tested compounds, expressed as range from minimal activity (0) to that of compound 1 (+++), and results of a DSF binding assay (shown as shift in temperature at 100 μM of the compound) are shown in the Table 2 below.

PAPD5 [2] = target: T1, PAPD5; assay: DSF binding assay (shift in temperature); settings: shift in temperature at 100 μM of the compound
Description: as §1

T1 sequence (Q8NDF8 68-698 isoform Q8NDF8-5 limits assumed): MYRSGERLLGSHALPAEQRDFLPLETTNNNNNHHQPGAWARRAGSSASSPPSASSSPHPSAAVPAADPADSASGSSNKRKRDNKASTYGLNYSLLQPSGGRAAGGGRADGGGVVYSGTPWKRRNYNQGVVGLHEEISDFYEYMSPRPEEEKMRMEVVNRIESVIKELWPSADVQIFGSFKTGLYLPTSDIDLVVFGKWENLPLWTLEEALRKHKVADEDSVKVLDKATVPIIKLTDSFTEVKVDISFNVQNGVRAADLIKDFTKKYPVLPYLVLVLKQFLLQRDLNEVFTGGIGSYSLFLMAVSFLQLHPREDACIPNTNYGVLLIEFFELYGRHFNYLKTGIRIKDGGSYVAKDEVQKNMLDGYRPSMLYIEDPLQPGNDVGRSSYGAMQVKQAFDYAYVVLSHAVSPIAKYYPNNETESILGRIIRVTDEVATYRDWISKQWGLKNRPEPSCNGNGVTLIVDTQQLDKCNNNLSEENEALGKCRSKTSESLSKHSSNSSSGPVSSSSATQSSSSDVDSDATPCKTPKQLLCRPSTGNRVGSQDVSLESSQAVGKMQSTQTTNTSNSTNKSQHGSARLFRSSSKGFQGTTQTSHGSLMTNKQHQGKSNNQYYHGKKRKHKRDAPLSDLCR

| Compound | Inhibition of PAPD5 RNA oligo adenylation (PAPD5 [1]) | ΔTm at 100 µM (PAPD5 [2]) [°C] |
| --- | --- | --- |
| CCOC(=O)c1cnc2ccc(OC(F)(F)F)cc2c1Nc1scnc1C(=O)OCC [Compound 33A, ethyl 5-[[3-ethoxycarbonyl-6-(trifluoromethoxy)-4-quinolyl]amino]thiazole-4-carboxylate] | 0 | 0.7 |
| CCOC(=O)c1cnc2ccc(OC(F)(F)F)cc2c1Nc1ccccc1C#N [Compound 25A, ethyl 4-(2-cyanoanilino)-6-(trifluoromethoxy)quinoline-3-carboxylate] | 0 | 0.1 |
| CCOC(=O)c1cnc2ccc(Br)cc2c1Nc1ccccc1C(=O)O [Compound 26A, 2-[(6-bromo-3-ethoxycarbonyl-4-quinolyl)amino]benzoic acid] | +++ | 11.1 |
| CCOC(=O)c1cnc2ccc(C(=O)N3CCNCC3)cc2c1Nc1ccccc1C(=O)O [Compound 18A, 2-[[3-ethoxycarbonyl-6-(piperazine-1-carbonyl)-4-quinolyl]amino]benzoic acid] | 0 | -0.1 |
| O=C(O)c1ccccc1Nc1c(-c2ncco2)cnc2ccc(OC(F)(F)F)cc12 [Compound 17A, 2-[[3-oxazol-2-yl-6-(trifluoromethoxy)-4-quinolyl]amino]benzoic acid] | +++ | 8.4 |
| O=C(O)c1c(O)cccc1Nc1c(-c2ncco2)cnc2ccc(Cl)cc12 [Compound 82A, 2-[(6-chloro-3-oxazol-2-yl-4-quinolyl)amino]-6-hydroxy-benzoic acid] | +++ | 13.5 |
| NS(=O)(=O)c1cnc2ccc(OC(F)(F)F)cc2c1Nc1ccccc1C(=O)O [Compound 16A, 2-[[3-sulfamoyl-6-(trifluoromethoxy)-4-quinolyl]amino]benzoic acid] | +++ | 9.6 |
| COCCCOc1cc2ncc(C#N)c(Nc3cccc(O)c3C(=O)O)c2cc1OC [Compound 55A, 2-[[3-cyano-6-methoxy-7-(3-methoxypropoxy)-4-quinolyl]amino]-6-hydroxy-benzoic acid] | +++ | 13.9 |
| COCCCOc1cc2ncc(C#N)c(Nc3ccccc3C(=O)O)c2cc1OC [Compound 51A, 2-[[3-cyano-6-methoxy-7-(3-methoxypropoxy)-4-quinolyl]amino]benzoic acid] | + | 7.9 |
